Source: patent publication US9695191B2, “Conformationally constrained, fully synthetic macrocyclic compounds” (POLYPHOR AG, priority 2009, dated 2017)
Read-outs that look alike come from different tables or passages of the source.

What was measured:
[1] = Metabolic stability, human microsomes; type: in vitro ADME; conditions: 37° C.; for Metabolic Stability 60 min hum: % of the initial 0 minutes value at 60 min, 10 μM
Protocol: (§1) Microsomes from a human 50 donor mixed gender pool and 1:1 mixtures of microsomes from CD-1 mouse single-gender pools are purchased from Celsis (Belgium). The enzymatic reaction is performed in a buffer containing an NADPH regeneration system and microsomes with the following end concentrations: 100 mM potassium phosphate buffer (all from Sigma), 1 mg/mL glucose-6-phosphate, 1 mg/mL β-nicotinamide adenine dinucleotide phosphate (NADP), 0.65 mg/mL magnesium chloride, 0.8 units/mL of glucose-6-phosphate dehydrogenase (prediluted with 5 mM citrate buffer), 10 μM compound and 1 mg/ml microsomal protein. Compounds are incubated at 37° C. in duplicates and samples are taken after 0, 20 and 60 minutes. After acetonitrile precipitation (2 volumes) and HPLC/MS/MS analysis metabolic turnover is expressed in % of the initial 0 minutes value and half life T½ (min) is calculated. Verapamil for human and propranolol for mouse are used as reference and are assayed with every experimental set. • F. P. Guengerich, Analysis and Characterization of Enzymes; in: Principles and Methods of Toxicology; A. W. Hayes (Ed.) Raven Press: New York, 1989, 777-813. • R. Singh et al., In vitro metabolism of a potent HIV-protease inhibitor (141W94) using rat, monkey and human liver S9, Rapid Commun. Mass Spectrom. 1996, 10, 1019-1026. 5. Results

[2] = both, CD-1, mouse, 10 μM
Protocol: (§2) Example compounds were dissolved in DMSO/H2O 90:10 to a final concentration of 10 mM for plasma stability determination and metabolic stability determination.
(§3) Human plasma (3-5 donors, Blutspendedienst SRK, Basel) and CD-1 mouse plasma (mixed gender pool>50 animals, Innovative Research, CA, USA) are both sodium citrate stabilized. The assay is performed in triplicates at 10 μM compound concentration and 37° C. Samples are taken at 0, 15, 60, and 240 minutes and stopped by precipitation with 2 volumes of acetonitrile. The supernatant is collected, evaporated and reconstituted in a 5% acetonitrile solution to be analyzed by HPLC/MS/MS. The resulting peak area counts are expressed in percent of the 0 value and used to determine the endpoint stability in % and the half life T½ in minutes. In order to monitor assay integrity the degradation of propantheline is assayed with every experimental set

[3] = target: T1, 5-hydroxytryptamine 2B (5-HT2B) receptor (Homo sapiens, UniProt P41595); experiment: Ca2+ assay (FLIPR), 5-hydroxytryptamine 2B (5-HT2B) receptor, agonist mode (percentage activation); type: cell-based
T1 construct: expressed in transfected cells; host or cells: Ca2+ optimized hematopoietic cell lines (rat)
Protocol: Dose dependent agonist and antagonist activities were determined. Percentage activation and percentage inhibition values were determined.
Percentage activation was determined upon initial addition of the sample compounds followed by 10 minutes incubation at 25° C. Following compound incubation, reference agonists were added at EC80 to determine percentage inhibition.
All handling of ligands were done to ensure proper control throughout the experiments.
HBSS was supplemented with 20 mM HEPES (4-(2-hydroxyethyl)-piperazin-1-ethansulfonic acid) and 2.5 mM Probenecid (Sigma P8761).
GPCR assays were performed using Ca^2+ optimized hematopoietic cell lines (rat) with cultures never exceeding 90% confluency. […] After seeding, the assay plates were incubated for forty-five (45) minutes at room temperature. After room temperature incubation, the assay plates were incubated at 37° C. 5% CO2 for 24 hours prior to assaying.
All GPCR assays were performed using Fluo-8 Ca^2+ dye. Ca^2+ dye was prepared at 1× dye concentration in GPCR assay buffer. […] The plates were incubated for 90 minutes at 30° C. 5% CO2 prior to FLIPR assay.
Compound plates were prepared to add 50 μL/well during the agonist assay mode. During the FLIPR assay, 50 μL/well from the compound plate was diluted 3-fold into the existing 100 μL/well from the dye loading step. Therefore all compounds were prepared as 3× the final concentration desired in the assay.
After completion of the first single addition assay run, assay plate was removed from the FLIPR Tetra and placed at 25° C. for seven (7) minutes before antagonist assay.
From the FLIPR data, with negative control correction enabled, the maximum statistic for each well was exported and percentage activation relative to Emax control was calculated.

[4] = human, 10 μM
Protocol: as §2, §3

[5] = Metabolic stability, CD-1 mouse microsomes; type: in vitro ADME; conditions: 37° C.; for Metabolic Stability 60 min mouse: % of the initial 0 minutes value at 60 min, 10 μM
Protocol: as §1

[6] = Plasma stability, human plasma; conditions: endpoint stability in % of the 0 value at 240 min, 10 μM, 37° C.
Protocol: as §2, §3

[7] = Plasma stability, CD-1 mouse plasma; conditions: endpoint stability in % of the 0 value at 240 min, 10 μM, 37° C.
Protocol: as §2, §3

[8] = from CNCC(=O)N1C[C@@H](NC(=O)OC(C)(C)C)C[C@H]1COc1cncc(C(=O)N(C)C[C@H](NC(=O)OCc2ccccc2)C(=O)O)c1; amide bond; T3P; CH2Cl2; 9.75 mM
[9] = 10 μM compound, 1 mg/ml microsomal protein, sampling up to 60 min

T1 sequence (P41595 whole entry): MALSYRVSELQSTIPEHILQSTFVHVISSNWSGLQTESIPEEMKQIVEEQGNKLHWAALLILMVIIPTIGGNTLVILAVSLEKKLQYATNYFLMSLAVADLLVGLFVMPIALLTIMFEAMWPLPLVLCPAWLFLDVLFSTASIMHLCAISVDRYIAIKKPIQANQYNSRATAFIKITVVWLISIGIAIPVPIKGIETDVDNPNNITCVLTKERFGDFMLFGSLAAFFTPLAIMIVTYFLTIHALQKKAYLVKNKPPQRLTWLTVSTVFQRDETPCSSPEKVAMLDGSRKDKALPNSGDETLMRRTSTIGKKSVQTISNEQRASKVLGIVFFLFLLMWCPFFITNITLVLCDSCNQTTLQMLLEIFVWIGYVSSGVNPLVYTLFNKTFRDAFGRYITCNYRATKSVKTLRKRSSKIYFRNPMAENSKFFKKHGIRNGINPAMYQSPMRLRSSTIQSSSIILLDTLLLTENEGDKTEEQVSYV

Row | Structure (SMILES) | Metabolic Stability 60 min hum [1] | Metabolic Stability 60 min mouse [5] | Metabolic Stability T ½ [min] hum [1, 9] | Plasma Stability 240 min hum [6] | Metabolic Stability T ½ [min] mouse [5, 9] | Plasma Stability 240 min mouse [7] | Plasma Stability 240 min mouse [2] | 5-HT2B receptor agonist activity [% activation at 12.5 μM] [3] | Plasma Stability 240 min hum [4] | ring closure, yield of all isomers [8]
1 | CC(=O)N[C@H]1C[C@H]2COc3ccc(F)cc3C(=O)N(C)[C@H](C(=O)NCCc3c[nH]c4ccccc34)CCC(=O)N(C)CC(=O)N2C1 [Ex. 9, (2S,11S,19aS)-2-(acetylamino)-15-fluoro-N-[2-(1H-indol-3-yl)ethyl]-7,12-dimethyl-5,8,13-trioxo-2,3,6,7,8,9,10,11,12,13,19,19a-dodecahydro-1H,5H-pyrrolo[2,1-c][1,4,7,12] benzoxatriazacyclopentadecine-11-carboxamide] | 20% | 80% |  |  |  |  | 93% | 48% | 99% | 
2 | CN1CC(=O)N2C[C@@H](NC(=O)Cc3c[nH]c4ccccc34)C[C@H]2COc2ccc(F)cc2C(=O)N(C)[C@H](C(=O)NCCc2c[nH]c3ccccc23)CCC1=O [Ex. 12, (2S,11S,19aS)-15-fluoro-2-{[2-(1H-indol-3-yl)acetyl]amino}-N-[2-(1H-indol-3-yl)ethyl]-7,12-dimethyl-5,8,13-trioxo-2,3,6,7,8,9,10,11,12,13,19,19a-dodecahydro-1H,5H-pyrrolo [2,1-c][1,4,7,12]benzoxatriazacyclopentadecine-11-carboxamide] | 7% | 33% |  |  |  |  | 100% | 36% | 99% | 
3 | CN(C)CC(=O)N[C@H]1C[C@H]2COc3ccc(F)cc3C(=O)N(C)[C@H](C(=O)NCCc3c[nH]c4ccccc34)CCC(=O)N(C)CC(=O)N2C1 [Ex. 16, (2S,11S,19aS)-2-{[2-(dimethylamino)acetyl]amino}-15-fluoro-N-[2-(1H-indol-3-yl)ethyl]-7,12-dimethyl-5,8,13-trioxo-2,3,6,7,8,9,10,11,12,13,19,19a-dodecahydro-1H,5H-pyrrolo [2,1-c][1,4,7,12]benzoxatriazacyclopentadecine-11-carboxamide] | 31% | 79% |  |  |  |  | 97% | 45% | 95% | 
4 | CN1C[C@H](NC(=O)OCc2ccccc2)C(=O)N(C)CC(=O)N2C[C@@H](NC(=O)OC(C)(C)C)C[C@H]2COc2cncc(c2)C1=O [Ex. 272, benzyl N-[(4S,6S,13S)-6-[(tert-butoxycarbonyl)amino]-11,15-dimethyl-9,12,16-trioxo-2-oxa-8,11,15,19-tetraazatricyclo [15.3.1.0^4,8]henicosa-1(21),17,19-trien-13-yl]carbamate] |  |  |  |  |  |  | 92% |  | 95% | 38%

Continued, in another order:

Row | Metabolic Stability 60 min hum [1] | Metabolic Stability 60 min mouse [5] | Metabolic Stability T ½ [min] hum [1, 9] | Plasma Stability 240 min hum [6] | Metabolic Stability T ½ [min] mouse [5, 9] | Plasma Stability 240 min mouse [7] | Structure (SMILES) | Plasma Stability 240 min mouse [2] | 5-HT2B receptor agonist activity [% activation at 12.5 μM] [3] | Plasma Stability 240 min hum [4] | ring closure, yield of all isomers [8]
5 | 2% | 55% |  |  |  |  | CN1CC(=O)N2C[C@@H](NC(=O)OC(C)(C)C)C[C@H]2COc2ccc(F)cc2C(=O)N(C)[C@H](C(=O)NCCc2c[nH]c3ccccc23)CCC1=O [Ex. 30, tert-butyl N-[(2S,11S,19aS)-15-fluoro-11-({[2-(1H-indol-3-yl)ethyl]amino}carbonyl)-7,12-dimethyl-5,8,13-trioxo-2,3,6,7,8,9,10,11,12,13,19,19a-dodecahydro-1H,5H-pyrrolo[2,1-c][1,4,7,12]benzoxatriazacyclopentadecin-2-yl]carbamate] | 100% | 48% | 85% | 
6 | 22% | 25% | 35 min | 97% | 36 min | 75% | CCCCC(=O)N[C@H]1C[C@H]2COc3ccc(F)cc3C(=O)N(C)[C@@H](C(=O)NCc3ccc4ccccc4c3)CCC(=O)N(C)CC(=O)N2C1 [Ex. 103, (2S,115,19aS)-15-fluoro-7,12-dimethyl-N-(2-naphthylmethyl)-5,8,13-trioxo-2-(pentanoylamino)-2,3,6,7,8,9,10,11,12,13,19,19a-dodecahydro-1H,5H-pyrrolo[2,1-c][1,4,7,12] benzoxatriazacyclopentadecine-11-carboxamide] |  |  |  | 
